NC(=O)c1ncn([C@@H]2O[C@H](CO)[C@@H](O)[C@H]2O)n1
solubility (mole fraction)
Settings	in DMSO	in acetone	in ethanol	in formic acid	in methanol	in n-butanol	in n-propanol	in sec-butanol	in water
283.15 K	–	3.77e-05	5.95e-05	0.0483	0.000576	7.44e-05	4.57e-05	7.85e-05	0.00879
288.15 K	–	4.45e-05	8.55e-05	0.0533	0.000665	8.95e-05	5.73e-05	8.47e-05	0.0104
293.15 K	0.0532	5.43e-05	0.000117	0.0644	0.000743	0.000117	7.99e-05	9.62e-05	0.0123
298.15 K	0.0659	6.36e-05	0.000158	0.0785	0.000865	0.000149	0.000102	0.000104	0.0144
303.15 K	0.075	7.87e-05	0.000209	0.091	0.00103	0.000175	0.000131	0.000122	0.0165
308.15 K	0.0821	9.41e-05	0.000282	0.104	0.00122	0.00021	0.000161	0.000135	0.019
313.15 K	0.095	0.000114	0.000339	0.114	0.00138	0.000246	0.000194	0.000161	0.0225
318.15 K	0.11	0.000139	0.000435	0.131	0.00169	0.000288	0.000235	0.000196	0.0269
323.15 K	0.125	0.000153	0.000552	0.159	0.00194	0.000362	0.000295	0.000224	0.0305
